Earlier results on one compound are cited in patent US12036329B2, “Mucoadhesive dispersion nanoparticle system and method for production the same” (LEAD BIOTHERAPEUTICS LTD, priority 2018, dated 2024).

The test system of the data set is alpha-adrenergic receptor. The note with it: generally accepted.

For `Cc1cc(C(C)(C)C)cc(C)c1CC1=NCCN1` [xylometazoline], the Duration of effect was 5 to 6 h.
